Assay results published in patent US11332459B2 (TEIJIN PHARMA LIMITED, priority 2017, dated 2022).
Structures can show the parent of a compound that is named as a salt.

Each molecule was assayed against T1, human TRPC6 (Homo sapiens, UniProt Q9Y210) (assay: TRPC6 calcium flux assay (FLIPR, OAG-stimulated calcium influx)). Settings: HEK293 cells stably transfected with human TRPC6, read-out: hTRPC6 Potency.
T1 construct: expressed in transfected cells
T1 sequence (Q9Y210 1-931): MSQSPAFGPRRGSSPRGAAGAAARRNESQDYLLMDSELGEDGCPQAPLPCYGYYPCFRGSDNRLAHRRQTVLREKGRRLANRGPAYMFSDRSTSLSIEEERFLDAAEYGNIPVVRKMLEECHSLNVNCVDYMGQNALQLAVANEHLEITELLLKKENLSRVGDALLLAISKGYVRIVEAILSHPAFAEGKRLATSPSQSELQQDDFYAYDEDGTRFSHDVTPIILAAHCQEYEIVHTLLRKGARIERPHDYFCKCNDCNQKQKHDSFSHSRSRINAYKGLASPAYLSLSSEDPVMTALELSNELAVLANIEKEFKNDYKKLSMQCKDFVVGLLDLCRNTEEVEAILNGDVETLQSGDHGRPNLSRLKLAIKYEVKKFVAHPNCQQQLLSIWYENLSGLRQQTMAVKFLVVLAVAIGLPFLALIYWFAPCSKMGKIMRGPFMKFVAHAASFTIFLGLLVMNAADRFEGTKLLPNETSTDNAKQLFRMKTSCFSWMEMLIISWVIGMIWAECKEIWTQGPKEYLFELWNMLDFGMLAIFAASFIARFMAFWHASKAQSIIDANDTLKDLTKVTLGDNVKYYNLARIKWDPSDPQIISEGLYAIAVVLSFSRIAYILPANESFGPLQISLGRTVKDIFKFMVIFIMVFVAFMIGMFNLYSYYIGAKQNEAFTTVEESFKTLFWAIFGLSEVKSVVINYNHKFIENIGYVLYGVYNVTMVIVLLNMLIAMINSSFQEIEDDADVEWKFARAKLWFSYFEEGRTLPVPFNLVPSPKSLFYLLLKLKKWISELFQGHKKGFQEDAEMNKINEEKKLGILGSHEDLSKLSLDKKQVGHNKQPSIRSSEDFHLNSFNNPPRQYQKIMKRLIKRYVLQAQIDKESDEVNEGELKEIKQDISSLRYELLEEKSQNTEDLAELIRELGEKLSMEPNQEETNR
Assay type: cell-based
Outline: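 HEK293 cells stably expressing human TRPC6, loaded with calcium dye 90–120 min at RT, then given compound for 25 min before OAG (50 uM final, 0.5% DMSO) in HEPES buffer pH 7.2 with 2 mM CaCl2. Background-subtracted FLIPR peak over 180 s normalized to OAG vs buffer; IC50 from dose plot.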

Structure (SMILES) | IC50 [nM]
COc1cnc(Cn2c(N3CC[C@@H](F)[C@H](N)C3)nc3ccc(F)cc32)nc1 [Example 444, (3R,4R)-4-fluoro-1-(6-fluoro-1-((5-methoxypyrimidin-2-yl)methyl)-1H-benzo[d]imidazol-2-yl)piperidin-3-amine] | 4.42
N[C@@H]1CN(c2nc3cc(F)c(F)cc3n2CC(=O)N2CCCCCCC2)CC[C@H]1F [Example 510, 2-(2-((3R,4R)-3-amino-4-fluoropiperidin-1-yl)-5,6-difluoro-1H-benzo[d]imidazol-1-yl)-1-(azocan-1-yl)ethan-1-one] | 139
N#CCOc1ccc(Cn2c(N3CCC[C@@H](N)C3)nc3ccccc32)cc1 [Example 384, (R)-2-(4-((2-(3-aminopiperidin-1-yl)-1H-benzo[d]imidazol-1-yl)methyl)phenoxy) acetonitrile] | 16000
CN(CC(F)(F)F)C(=O)Cn1c(N2CC[C@@H]3OCCN[C@H]3C2)nc2cc(F)ccc21 [Example 493, 2-(5-fluoro-2-((4aS,8aS)-hexahydro-2H-pyrido[4,3-b][1,4]oxazin-6(5H)-yl)-1H-benzo[d]imidazol-1-yl)-N-methyl-N-(2,2,2-trifluoroethyl)acetamide] | > 3750
N#Cc1ccc(Cn2c(N3CC[C@H](F)[C@H](N)C3)nc3cc(Cl)c(Cl)cc32)nc1 [Example 82, 6-((2-((3R,4S)-3-amino-4-fluoropiperidin-1-yl)-5,6-dichloro-1H-benzo[d]imidazol-1-yl)methyl)nicotinonitrile hydrochloride] | 0.504
C[C@H](c1ccc(C#N)cn1)n1c(N2CC[C@@H]3OCCN[C@H]3C2)nc2c(F)cc(F)cc21 [Example 268, 6-((1R)-1-(4,6-difluoro-2-((4aS,8aS)-hexahydro-2H-pyrido[4,3-b][1,4]oxazin-6(5H)-yl)-1H-benzimidazol-1-yl)ethyl)-3-pyridinecarbonitrile] | > 50000
N#Cc1ccc(Cn2c(N3CC[C@@H](F)[C@H](N)C3)nc3cc(F)c(F)cc32)cc1Cl [Example 346, 4-((2-((3R,4R)-3-amino-4-fluoro-1-piperidinyl)-5,6-difluoro-1H-benzimidazol-1-yl)methyl)-2-chlorobenzonitrile] | 1.39
C[C@H](c1ccc(F)cc1F)n1c(N2CC[C@@H](F)[C@H](N)C2)nc2cc(F)c(F)cc21 [Example 330, (3R,4R)-1-(1-((1R)-1-(2,4-difluorophenyl)ethyl)-5,6-difluoro-1H-benzimidazol-2-yl)-4-fluoro-3-piperidinamine] | 669
N#Cc1ccc(Cn2c(N3CC[C@@H](F)[C@H](N)C3)nc3cnccc32)cc1 [Example 412, 4-((2-((3R,4R)-3-amino-4-fluoropiperidin-1-yl)-1H-imidazo[4,5-c]pyridin-1-yl)methyl)benzonitrile] | 322
N#Cc1ccc(Cn2c(N3CCC[C@H](N)C3)nc3ccccc32)cc1 [Example 167, (S)-4-((2-(3-aminopiperidin-1-yl)-1H-benzo[d]imidazol-1-yl)methyl)benzonitrile] | 1.97
CN1CC[C@@H](n2c(N3CC[C@@H](F)[C@H](N)C3)nc3cc(F)c(F)cc32)C1=O [Example 246, (R)-3-(2-((3R,4R)-3-amino-4-fluoropiperidin-1-yl)-5,6-difluoro-1H-benzo[d]imidazol-1-yl)-1-methylpyrrolidin-2-one] | 2920
N#Cc1ccc(Cn2c(N3CC[C@@H](F)[C@H](N)C3)nc3ncccc32)cc1 (single isomer, unassigned) [Example 415] | 274
N[C@@H]1CN(c2nc3cc(F)c(F)cc3n2CC(=O)N2CCCC(O)C2)CC[C@H]1F (mixture of isomers) [Example 628, 2-(2-((3R,4R)-3-amino-4-fluoropiperidin-1-yl)-5,6-difluoro-1H-benzo[d]imidazol-1-yl)-1-(3-hydroxypiperidin-1-yl)ethanone] | 132
Cc1cc2c(cc1F)nc(N1CC[C@@H](F)[C@H](N)C1)n2Cc1ccc(C#N)cn1 [Example 115, 6-((2-((3R,4R)-3-amino-4-fluoro-1-piperidinyl)-5-fluoro-6-methyl-1H-benzimidazol-1-yl)methyl)-3-pyridinecarbonitrile] | 0.446
N[C@@H]1CN(c2nc3cc(F)c(F)cc3n2CC(=O)N2CCN3C(=O)NCC3C2)CC[C@H]1F (stereo partly drawn) [Example 642, 7-(2-(2-((3R,4R)-3-amino-4-fluoropiperidin-1-yl)-5,6-difluoro-1H-benzo[d]imidazol-1-yl)acetyl)hexahydroimidazo [1,5-a]pyrazin-3(2H)-one] | 1650
N#Cc1ccc(Cn2c(N3CC[C@H](F)[C@H](N)C3)nc3cc(Cl)ccc32)nc1 [Example 9, 6-((2-((3R,4S)-3-amino-4-fluoropiperidin-1-yl)-5-chloro-1H-benzo[d]imidazol-1-yl)methyl)nicotinonitrile] | 1.61
N#Cc1ccc(Cn2c(N3C[C@H]4NCCO[C@@H]4C3)nc3ccccc32)nc1 [Example 100, 6-((2-((4aR,7aR)-hexahydropyrrolo[3,4-b][1,4]oxazin-6(2H)-yl)-1H-benzo[d]imidazol-1-yl)methyl)nicotinonitrile] | 60
COc1cccc2c1nc(N1CC[C@@H](F)[C@H](N)C1)n2Cc1ccc(C#N)cn1 [Example 120, 6-((2-((3R,4R)-3-amino-4-fluoro-1-piperidinyl)-4-methoxy-1H-benzimidazol-1-yl)methyl)-3-pyridinecarbonitrile] | 3.21
C[C@@H](c1ccc(Cl)cn1)n1c(N2CC[C@@H](F)[C@H](N)C2)nc2ccccc21 [Example 216, (3R,4R)-1-(1-((S)-1-(5-chloropyridin-2-yl)ethyl)-1H-benzo[d]imidazol-2-yl)-4-fluoropiperidin-3-amine hydrochloride] | 11.4
N[C@@H]1CCCN(c2nc3ccccc3n2Cc2ccc3ccncc3c2)C1 [Example 293, (R)-1-(1-(isoquinolin-7-ylmethyl)-1H-benzo[d]imidazol-2-yl)piperidin-3-amine] | 2920
N#Cc1ccc(Cn2c(N3CC[C@@H](F)[C@H](N)C3)nc3cc(OC(F)(F)F)c(Cl)cc32)nc1 [Example 124, 6-((2-((3R,4R)-3-amino-4-fluoro-1-piperidinyl)-6-chloro-5-(trifluoromethoxy)-1H-benzimidazol-1-yl)methyl)-3-pyridinecarbonitrile] | 0.741
N[C@@H]1CN(c2nc3cc(F)c(F)cc3n2Cc2ccc(F)cn2)CCC1(F)F [Example 307, (R)-1-(5,6-difluoro-1-((5-fluoropyridin-2-yl)methyl)-1H-benzo[d]imidazol-2-yl)-4,4-difluoropiperidin-3-amine] | 376
C[C@@H](CC#N)NC(=O)Cn1c(N2CC[C@@H](F)[C@H](N)C2)nc2ccc(F)cc21 [Example 669, 2-(2-((3R,4R)-3-amino-4-fluoropiperidin-1-yl)-6-fluoro-1H-benzo[d]imidazol-1-yl)-N-((S)-1-cyanopropan-2-yl)acetamide] | 901
N#Cc1ccc2c(c1)nc(N1CC[C@@H](F)[C@H](N)C1)n2Cc1ncc(F)cn1 [Example 197, 2-((3R,4R)-3-amino-4-fluoropiperidin-1-yl)-1-((5-fluoropyrimidin-2-yl)methyl)-1H-benzo[d]imidazole-5-carbonitrile] | 256
N#Cc1ccc(Cn2c(N3CC[C@@H](F)[C@H](N)C3)nc3c(Cl)cc(Cl)cc32)nc1 [Example 58, 6-((2-((3R,4R)-3-amino-4-fluoropiperidin-1-yl)-4,6-dichloro-1H-benzo[d]imidazol-1-yl)methyl)nicotinonitrile] | 0.469
C[C@H]1COCCN1C(=O)Cn1c(N2CC[C@@H](F)[C@H](N)C2)nc2ccc(F)cc21 [Example 678, 2-(2-((3R,4R)-3-amino-4-fluoropiperidin-1-yl)-6-fluoro-1H-benzo[d]imidazol-1-yl)-1-((S)-3-methylmorpholino)ethan-1-one] | 98.3
C[C@@H]1CCN(c2nc3ccccc3n2Cc2ccc(C#N)cc2)C[C@@H]1N [Example 163, 4-((2-((3R,4R)-3-amino-4-methylpiperidin-1-yl)-1H-benzo[d]imidazol-1-yl)methyl)benzonitrile] | 2840
N#Cc1ccc(Cn2c(N3CC[C@H](F)[C@@H](N)C3)nc3ccccc32)nc1 [Example 16, 6-((2-((3S,4S)-3-amino-4-fluoropiperidin-1-yl)-1H-benzo[d]imidazol-1-yl)methyl)nicotinonitrile] | 224
N[C@@H]1CN(c2nc3cc(F)ccc3n2Cc2nnc(C(F)F)s2)CC[C@H]1F [Example 587, (3R,4R)-1-(1-((5-(difluoromethyl)-1,3,4-thiadiazol-2-yl)methyl)-5-fluoro-1H-benzo[d]imidazol-2-yl)-4-fluoropiperidin-3-amine] | 765
